# Experimental data reported in patent US10413505B1, “Pharmaceutical compositions and methods of using the same” (priority 2017, dated 2019).
# Assay: Example 3 plasma pharmacokinetics, normal hepatic function vs hepatic impairment
# Details: for AUC(0-t) / AUC(0-inf) / Cmax / Tmax / half-life: both, human, 160 mg
# [1] = hepatic impairment, single intranasal 160 mg cocaine HCl, plasma
# [2] = normal hepatic function, single intranasal 160 mg cocaine HCl, plasma
structure (smiles),measurement,setting,value
"COC(=O)[C@H]1[C@@H](OC(=O)c2ccccc2)C[C@@H]2CC[C@H]1N2C [Cocaine, cocaine, reference compound]",Cmax Ratio Grade C/Normal,ANOVA,68.13%
same,Cmax Ratio Grade B/Normal,"ANOVA, excludes one outlier subject",104.89%
same,"AUClast, times higher than normal subjects",Grade B hepatic impairment,2.8 times
same,"CL/F (Geometric Least Squares Mean, ANOVA)",Grade B hepatic impairment,629 L/h
same,"CL/F, percent reduction vs normal",Grade B hepatic impairment,64%
same,"geometric mean Cmax, percent higher than normal","Grade B hepatic impairment, outlier excluded",5%
same,"geometric mean Cmax, percent higher than normal","Grade B hepatic impairment, outlier included",56%
same,"AUClast, times higher than normal subjects",Grade C hepatic impairment,1.8 times
same,"CL/F (Geometric Least Squares Mean, ANOVA)",Grade C hepatic impairment,959 L/h
same,"CL/F, percent reduction vs normal",Grade C hepatic impairment,45%
same,"geometric mean Cmax, percent lower than normal",Grade C hepatic impairment,32%
same,"CL/F (Geometric Least Squares Mean, ANOVA)",Normal hepatic function,1735 L/h
same,"geometric mean Cmax, percent lower than normal","all hepatically impaired individuals, outlier excluded",7%
same,"geometric mean Cmax, percent higher than normal","all hepatically impaired individuals, outlier included",27%
same,AUC(0-t),"plasma, inhaled or intranasal, AUC0→t (Geometric mean), hepatic impairment, single intranasal 160 mg cocaine HCl",189 ng·h/mL
same,AUC(0-t),"plasma, inhaled or intranasal, AUC0→t (Geometric mean), normal hepatic function, single intranasal 160 mg cocaine HCl",79.2 ng·h/mL
same,AUC(0-t),"plasma, inhaled or intranasal, AUC0→t (Mean), hepatic impairment, single intranasal 160 mg cocaine HCl",223 ng·h/mL
same,AUC(0-t),"plasma, inhaled or intranasal, AUC0→t (Mean), normal hepatic function, single intranasal 160 mg cocaine HCl",92.8 ng·h/mL
same,AUC(0-t),"plasma, inhaled or intranasal, AUC0→t (Median), hepatic impairment, single intranasal 160 mg cocaine HCl",176 ng·h/mL
same,AUC(0-t),"plasma, inhaled or intranasal, AUC0→t (Median), normal hepatic function, single intranasal 160 mg cocaine HCl",82.4 ng·h/mL
same,AUC(0-inf),"plasma, inhaled or intranasal, AUC0→∞ (Geometric mean), hepatic impairment, single intranasal 160 mg cocaine HCl",192 ng·h/mL
same,AUC(0-inf),"plasma, inhaled or intranasal, AUC0→∞ (Geometric mean), normal hepatic function, single intranasal 160 mg cocaine HCl",82.4 ng·h/mL
same,AUC(0-inf),"plasma, inhaled or intranasal, AUC0→∞ (Mean), hepatic impairment, single intranasal 160 mg cocaine HCl",227 ng·h/mL
same,AUC(0-inf),"plasma, inhaled or intranasal, AUC0→∞ (Mean), normal hepatic function, single intranasal 160 mg cocaine HCl",95.3 ng·h/mL
same,AUC(0-inf),"plasma, inhaled or intranasal, AUC0→∞ (Median), hepatic impairment, single intranasal 160 mg cocaine HCl",177 ng·h/mL
same,AUC(0-inf),"plasma, inhaled or intranasal, AUC0→∞ (Median), normal hepatic function, single intranasal 160 mg cocaine HCl",83.3 ng·h/mL
same,Cmax,"plasma, inhaled or intranasal, Cmax (Geometric mean), hepatic impairment, single intranasal 160 mg cocaine HCl",41.2 ng/mL
same,Cmax,"plasma, inhaled or intranasal, Cmax (Geometric mean), normal hepatic function, single intranasal 160 mg cocaine HCl",44.2 ng/mL
same,Cmax,"plasma, inhaled or intranasal, Cmax (Mean), hepatic impairment, single intranasal 160 mg cocaine HCl",50.7 ng/mL
same,Cmax,"plasma, inhaled or intranasal, Cmax (Mean), normal hepatic function, single intranasal 160 mg cocaine HCl",50.6 ng/mL
same,Cmax,"plasma, inhaled or intranasal, Cmax (Median), hepatic impairment, single intranasal 160 mg cocaine HCl",42.6 ng/mL
same,Cmax,"plasma, inhaled or intranasal, Cmax (Median), normal hepatic function, single intranasal 160 mg cocaine HCl",53.6 ng/mL
same,Tmax,"plasma, inhaled or intranasal, Tmax (Geometric mean), hepatic impairment, single intranasal 160 mg cocaine HCl",0.828 h
same,Tmax,"plasma, inhaled or intranasal, Tmax (Geometric mean), normal hepatic function, single intranasal 160 mg cocaine HCl",0.422 h
same,Tmax,"plasma, inhaled or intranasal, Tmax (Mean), hepatic impairment, single intranasal 160 mg cocaine HCl",1.09 h
same,Tmax,"plasma, inhaled or intranasal, Tmax (Mean), normal hepatic function, single intranasal 160 mg cocaine HCl",0.431 h
same,Tmax,"plasma, inhaled or intranasal, Tmax (Median), hepatic impairment, single intranasal 160 mg cocaine HCl",0.75 h
same,Tmax,"plasma, inhaled or intranasal, Tmax (Median), normal hepatic function, single intranasal 160 mg cocaine HCl",0.5 h
same,half-life,"plasma, inhaled or intranasal, t1/2 (Geometric mean), hepatic impairment, single intranasal 160 mg cocaine HCl",4.99 h
same,half-life,"plasma, inhaled or intranasal, t1/2 (Geometric mean), normal hepatic function, single intranasal 160 mg cocaine HCl",6.62 h
same,half-life,"plasma, inhaled or intranasal, t1/2 (Mean), hepatic impairment, single intranasal 160 mg cocaine HCl",5.42 h
same,half-life,"plasma, inhaled or intranasal, t1/2 (Mean), normal hepatic function, single intranasal 160 mg cocaine HCl",8.11 h
same,half-life,"plasma, inhaled or intranasal, t1/2 (Median), hepatic impairment, single intranasal 160 mg cocaine HCl",5.63 h
same,half-life,"plasma, inhaled or intranasal, t1/2 (Median), normal hepatic function, single intranasal 160 mg cocaine HCl",6.93 h
same,AUC(0-inf),"plasma, other: intranasal (drug-soaked pledgets in the nasal cavity), AUCinf, range observed, hepatically impaired patients",88 to 366 ng·h/mL
same,AUC(0-t),"plasma, other: intranasal (drug-soaked pledgets in the nasal cavity), AUClast (Geometric Least Squares Mean, ANOVA), Grade B hepatic impairment",225 ng·h/mL
same,AUC(0-t),"plasma, other: intranasal (drug-soaked pledgets in the nasal cavity), AUClast (Geometric Least Squares Mean, ANOVA), Grade C hepatic impairment",142 ng·h/mL
same,AUC(0-t),"plasma, other: intranasal (drug-soaked pledgets in the nasal cavity), AUClast (Geometric Least Squares Mean, ANOVA), Normal hepatic function",79.2 ng·h/mL
same,Cmax,"plasma, other: intranasal (drug-soaked pledgets in the nasal cavity), Cmax (Geometric Least Squares Mean, ANOVA), Grade B hepatic impairment, excludes one subject with anomalous concentration at 7 minutes",46.4 ng/mL
same,Cmax,"plasma, other: intranasal (drug-soaked pledgets in the nasal cavity), Cmax (Geometric Least Squares Mean, ANOVA), Grade C hepatic impairment",30.1 ng/mL
same,Cmax,"plasma, other: intranasal (drug-soaked pledgets in the nasal cavity), Cmax (Geometric Least Squares Mean, ANOVA), Normal hepatic function",44.2 ng/mL
same,Cmax,"plasma, other: intranasal (drug-soaked pledgets in the nasal cavity), Cmax, range observed, hepatically impaired patients",16.2 to 85.2 ng/mL
same,Tmax,"plasma, other: intranasal (drug-soaked pledgets in the nasal cavity), Tmax (approximate), normal hepatic function, plasma",~0.5 h
same,Tmax,"plasma, other: intranasal (drug-soaked pledgets in the nasal cavity), Tmax, range observed, hepatically impaired patients",0.306 to 1.87 h
same,"plasma exposure after Tmax, times higher than normal hepatic function",hepatic impairment group,about 2.5 times
same,AUC0→t (Max),[1],523 ng·h/mL
same,AUC0→t (Min),[1],89.5 ng·h/mL
same,AUC0→∞ (Max),[1],528 ng·h/mL
same,AUC0→∞ (Min),[1],90.9 ng·h/mL
same,Clast (Geometric mean),[1],0.270 ng/mL
same,Clast (Max),[1],1.73 ng/mL
same,Clast (Mean),[1],0.393 ng/mL
same,Clast (Median),[1],0.211 ng/mL
same,Clast (Min),[1],0.115 ng/mL
same,Cmax (Max),[1],119 ng/mL
same,Cmax (Min),[1],17.1 ng/mL
same,Tlast (Geometric mean),[1],31.6 h
same,Tlast (Max),[1],32.0 h
same,Tlast (Mean),[1],31.6 h
same,Tlast (Median),[1],32.0 h
same,Tlast (Min),[1],1680 min
same,Tmax (Max),[1],3.00 h
same,Tmax (Min),[1],7.02 min
same,t1/2 (Geometric mean),[1],4.94 h
same,t1/2 (Max),[1],9.86 h
same,t1/2 (Min),[1],87.6 min
same,AUC0→t (Max),[2],235 ng·h/mL
same,AUC0→t (Min),[2],20.0 ng·h/mL
same,AUC0→∞ (Max),[2],237 ng·h/mL
same,AUC0→∞ (Min),[2],21.7 ng·h/mL
same,Clast (Geometric mean),[2],0.188 ng/mL
same,Clast (Max),[2],0.405 ng/mL
same,Clast (Mean),[2],0.210 ng/mL
same,Clast (Median),[2],0.160 ng/mL
same,Clast (Min),[2],0.102 ng/mL
same,Cmax (Max),[2],75.2 ng/mL
same,Cmax (Min),[2],7.64 ng/mL
same,Tlast (Geometric mean),[2],24.7 h
same,Tlast (Max),[2],32.0 h
same,Tlast (Mean),[2],26.0 h
same,Tlast (Median),[2],28.0 h
same,Tlast (Min),[2],720 min
same,t1/2 (Max),[2],22.5 h
same,t1/2 (Min),[2],110 min
